IC50 data for 32 molecules are collected here from patent US8648066B2 (Exelixis, Inc., priority 2009, dated 2014).

Molecules are shown by their SMILES. pIC50: −log10 of the molar value.

This experiment deals with mTOR/GbL/Raptor (mTORC1) (Homo sapiens, UniProt P42345). In words: mTOR/GbL/Raptor (mTORC1) ELISA assay. The note with it: phosphorylation of 4E-BP1; 0.2 nM mTORC1, 10 μM ATP; read-out: IC50 in this assay (mTORC1 ELISA). Format: biochemical. An outline of the steps: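 Human mTORC1 (0.2 nM) phosphorylated 50 nM His-tagged 4E-BP1 with 10 µM ATP in HEPES pH 7.2 containing 10 mM MnCl2, 120 min at ambient temperature. Substrate was captured on Ni-chelate plates; phospho-4E-BP1 was detected by primary antibody and HRP secondary with luminescence.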
On to `Cn1c(N)nc2cc(-c3ccc4c(c3)CN(c3ccnc5ccccc35)CCO4)ccc21` [Example 116, 1-methyl-5-(4-quinolin-4-yl-2,3,4,5-tetrahydro-1,4-benzoxazepin-7-yl)-1H-benzimidazol-2-amine], for which the pIC50 is 5.70 to 6.00.
With `c1ccc2c(N3CCOc4ccc(-c5ccc6nc[nH]c6c5)cc4C3)ncnc2c1` [Example 123, 7-(1H-benzimidazol-6-yl)-4-quinazolin-4-yl-2,3,4,5-tetrahydro-1,4-benzoxazepine], the pIC50 is 6.60 to 7.30.
Turning to `Cc1ncnc(N2CCOc3ccc(-c4cnc(N)s4)cc3C2)c1Cc1ccc(F)cc1` [Example 124, 5-(4-{5-[(4-fluorophenyl)methyl]-6-methylpyrimidin-4-yl}-2,3,4,5-tetrahydro-1,4-benzoxazepin-7-yl)-1,3-thiazol-2-amine], the negative logarithm of the IC50 (pIC50) is no less than 8.00.
In the case of `c1ccc2c(N3CCOc4ccc(-c5ccc6nc[nH]c6c5)cc4C3)ccnc2c1` [Example 126, 7-(1H-benzimidazol-6-yl)-4-quinolin-4-yl-2,3,4,5-tetrahydro-1,4-benzoxazepine], the pIC50 was 6.00 to 6.60.
Take `c1ccc2c(N3CCOc4ccc(-c5ccc6scnc6c5)cc4C3)ccnc2c1` [Example 129, 7-(1,3-benzothiazol-5-yl)-4-quinolin-4-yl-2,3,4,5-tetrahydro-1,4-benzoxazepine]: the negative logarithm of the IC50 (pIC50) was 6.00 to 6.60.
To `Cc1ncnc(N2CCOc3ccc(-c4ccc(-c5ncc[nH]5)cc4)cc3C2)c1Cc1ccc(F)cc1` [Example 131, 4-{5-[(4-fluorophenyl)methyl]-6-methylpyrimidin-4-yl}-7-[4-(1H-imidazol-2-yl)phenyl]-2,3,4,5-tetrahydro-1,4-benzoxazepine] belongs no less than 8.00; to `c1ccc2c(N3CCOc4ccc(-c5ccc6nccnc6c5)cc4C3)ccnc2c1` [Example 132, 4-quinolin-4-yl-7-quinoxalin-6-yl-2,3,4,5-tetrahydro-1,4-benzoxazepine], no more than 5.70; to `CN(C)C(=O)c1cccc(-c2ccc3c(c2)CN(c2ccnc4ccccc24)CCO3)c1` [Example 134, N,N-dimethyl-3-(4-quinolin-4-yl-2,3,4,5-tetrahydro-1,4-benzoxazepin-7-yl)benzamide], no more than 5.70.
Regarding `c1ccc2c(N3CCOc4ccc(-c5ccc6c(c5)CCO6)cc4C3)ccnc2c1` [Example 135, 7-(2,3-dihydro-1-benzofuran-5-yl)-4-quinolin-4-yl-2,3,4,5-tetrahydro-1,4-benzoxazepine], the pIC50 was 5.70 to 6.00.
For `c1ccc2c(N3CCOc4ccc(-c5ccc6cn[nH]c6c5)cc4C3)ccnc2c1` [Example 136, 7-(1H-indazol-6-yl)-4-quinolin-4-yl-2,3,4,5-tetrahydro-1,4-benzoxazepine] the value was 5.70 to 6.00; for `c1ccc2c(N3CCOc4ccc(-c5cn[nH]c5)cc4C3)ccnc2c1` [Example 137, 7-(1H-pyrazol-4-yl)-4-quinolin-4-yl-2,3,4,5-tetrahydro-1,4-benzoxazepine], 5.70 to 6.00; for `c1ccc2c(N3CCOc4ccc(-c5ccc6[nH]ncc6c5)cc4C3)ccnc2c1` [Example 138, 7-(1H-indazol-5-yl)-4-quinolin-4-yl-2,3,4,5-tetrahydro-1,4-benzoxazepine], no more than 5.70.
In the case of `Cc1ncnc(N2CCOc3ccc(-c4ccc5nc(N)sc5n4)cc3C2)c1Cc1ccc(F)cc1` [Example 140, 5-(4-{5-[(4-fluorophenyl)methyl]-6-methylpyrimidin-4-yl}-2,3,4,5-tetrahydro-1,4-benzoxazepin-7-yl)[1,3]thiazolo[5,4-b]pyridin-2-amine], the pIC50 was 7.30 to 8.00.
To `Cc1ncnc(N2CCOc3ccc(-c4ccc5nc(N)nn5c4)cc3C2)c1Cc1ccc(F)cc1` [Example 141, 6-(4-{5-[(4-fluorophenyl)methyl]-6-methylpyrimidin-4-yl}-2,3,4,5-tetrahydro-1,4-benzoxazepin-7-yl)[1,2,4]triazolo[1,5-a]pyridin-2-amine] belongs 7.30 to 8.00.
To `Cc1ncnc(N2CCOc3ccc(-c4cnc5nc[nH]c5c4)cc3C2)c1Cc1ccc(F)cc1` [Example 142, 4-{5-[(4-fluorophenyl)methyl]-6-methylpyrimidin-4-yl}-7-(1H-imidazo[4,5-b]pyridin-6-yl)-2,3,4,5-tetrahydro-1,4-benzoxazepine] belongs no less than 8.00; to `Cc1ncnc(N2CCOc3ccc(-c4ccc5nc(N)ncc5c4)cc3C2)c1Cc1ccc(F)cc1` [Example 143, 6-(4-{5-[(4-fluorophenyl)methyl]-6-methylpyrimidin-4-yl}-2,3,4,5-tetrahydro-1,4-benzoxazepin-7-yl)quinazolin-2-amine], 7.30 to 8.00.
Take `Cc1ncnc(N2CCOc3ccc(-c4cnc5nc(N)cn5c4)cc3C2)c1Cc1ccc(F)cc1` [Example 144, 6-(4-{5-[(4-fluorophenyl)methyl]-6-methylpyrimidin-4-yl}-2,3,4,5-tetrahydro-1,4-benzoxazepin-7-yl)imidazo[1,2-a]pyrimidin-2-amine]: the pIC50 was 7.30 to 8.00.
Regarding `Cc1ncnc(N2CCOc3ccc(-c4ccc5nc(N)cn5c4)cc3C2)c1Cc1ccc(F)cc1` [Example 145, 6-(4-{5-[(4-fluorophenyl)methyl]-6-methylpyrimidin-4-yl}-2,3,4,5-tetrahydro-1,4-benzoxazepin-7-yl)imidazo[1,2-a]pyridin-2-amine], the negative-log IC50 (pIC50) is 7.30 to 8.00.
On to `Cc1ncnc(N2CCOc3ccc(-c4ccn5nc(N)nc5c4)cc3C2)c1Cc1ccc(F)cc1` [Example 146, 7-(4-{5-[(4-fluorophenyl)methyl]-6-methylpyrimidin-4-yl}-2,3,4,5-tetrahydro-1,4-benzoxazepin-7-yl)[1,2,4]triazolo[1,5-a]pyridin-2-amine], for which the negative-log IC50 (pIC50) is 7.30 to 8.00.
In the case of `Cc1ncnc(N2CCOc3ccc(-c4ccc5sc(N)nc5c4)cc3C2)c1Cc1ccc(F)cc1` [Example 148, 5-(4-{5-[(4-fluorophenyl)methyl]-6-methylpyrimidin-4-yl}-2,3,4,5-tetrahydro-1,4-benzoxazepin-7-yl)-1,3-benzothiazol-2-amine], the pIC50 is no less than 8.00.
To `Cc1ncnc(N2CCOc3ccc(-c4ccc(N)nn4)cc3C2)c1Cc1ccc(F)cc1` [Example 149, 6-(4-{5-[(4-fluorophenyl)methyl]-6-methylpyrimidin-4-yl}-2,3,4,5-tetrahydro-1,4-benzoxazepin-7-yl)pyridazin-3-amine] belongs 6.60 to 7.30; to `Cc1ncnc(N2CCOc3ccc(-c4cncs4)cc3C2)c1Cc1ccc(F)cc1` [Example 150, 4-{5-[(4-fluorrophenyl)methyl]-6-methylpyrimidin-4-yl}-7-(1,3-thiazol-5-yl)-2,3,4,5-tetrahydro-1,4-benzoxazepine], 6.60 to 7.30.
To `Cc1ncnc(N2CCOc3ccc(-c4cnc(N)cn4)cc3C2)c1Cc1ccc(F)cc1` [Example 151, 5-(4-{5-[(4-fluorophenyl)methyl]-6-methylpyrimidin-4-yl}-2,3,4,5-tetrahydro-1,4-benzoxazepin-7-yl)pyrazin-2-amine] belongs 6.60 to 7.30.
`Cc1ncc(-c2ccc3c(c2)CN(c2ncnc4c2CCC(C)(C)C4)CCO3)s1` [Example 152, 4-(7,7-dimethyl-5,6,7,8-tetrahydroquinoazlin-4-yl)-7-(2-methyl-1,3-thiazol-5-yl)-2,3,4,5-tetrahydro-1,4-benzoxazepine]: the pIC50 was 6.00 to 6.60.
For `Cc1ncnc(N2CCOc3ccc(-c4cnc(N)nc4)cc3C2)c1Cc1ccc(F)cc1` [Example 153, 5-(4-{5-[(4-fluorophenyl)methyl]-6-methylpyrimidin-4-yl}-2,3,4,5-tetrahydro-1,4-benzoxazepin-7-yl)pyrimidin-2-amine] the value was no less than 8.00; for `Cc1nc(N)sc1-c1ccc2c(c1)CN(c1ncnc(C)c1Cc1ccc(F)cc1)CCO2` [Example 154, 5-(4-{5-[(4-fluorophenyl)methyl]-6-methylpyrimidin-4-yl}-2,3,4,5-tetrahydro-1,4-benzoxazepin-7-yl)-4-methyl-1,3-thiazol-2-amine], 6.60 to 7.30.
For `CNC(=O)c1ccc(-c2ccc3c(c2)CN(c2ncnc(C)c2Cc2ccc(F)cc2)CCO3)nc1` [Example 155, 6-(4-{5-[(4-fluorophenyl)methyl]-6-methylpyrimidin-4-yl}-2,3,4,5-tetrahydro-1,4-benzoxazepin-7-yl)-N-methylpyridine-3-carboxamide], the pIC50 was 6.00 to 6.60.
For `Cc1nc(N)sc1-c1ccc2c(c1)CN(c1ncnc3c1CCC(C)(C)C3)CCO2` [Example 156, 5-[4-(7,7-dimethyl-5,6,7,8-tetrahydroquinazolin-4-yl)-2,3,4,5-tetrahydro-1,4-benzoxazepin-7-yl]-4-methyl-1,3-thiazol-2-amine] the value was 7.30 to 8.00.
For `COc1cc2c(N3CCOc4ccc(-c5ccc6nc(C)[nH]c6c5)cc4C3)ncnc2cc1O` [Example 157, 4-[7-(2-methyl-1H-benzimidazol-6-yl)-2,3-dihydro-1,4-benzoxazepin-4(5H)-yl]-6-(methyloxy)quinazolin-7-ol] the value was 6.00 to 6.60; for `Cc1nc2ccc(-c3ccc4c(c3)CN(c3ncnc5ccc(O)cc35)CCO4)cc2[nH]1` [Example 158, 4-[7-(2-methyl-1H-benzimidazol-6-yl)-2,3-dihydro-1,4-benzoxazepin-4(5H)-yl]quinazolin-6-ol], 7.30 to 8.00; for `CCOc1ccc2ncnc(N3CCOc4ccc(-c5ccc6nc(C)[nH]c6c5)cc4C3)c2c1` [Example 159, 4-[6-(ethyloxy)quinazolin-4-yl]-7-(2-methyl-1H-benzimidazol-6-yl)-2,3,4,5-tetrahydro-1,4-benzoxazepine], 6.60 to 7.30.
Regarding `Cc1nc2ccc(-c3ccc4c(c3)CN(c3ncnc5ccc(OCC#N)cc35)CCO4)cc2[nH]1` [Example 160, ({4-[7-(2-methyl-1H-benzimidazol-6-yl)-2,3-dihydro-1,4-benzoxazepin-4(5H)-yl]quinazolin-6-yl}oxy)acetonitrile], the pIC50 is 6.00 to 6.60.
